Key:
EZH2 enzyme complex = EZH2 enzyme complex (Homo sapiens (Human), UniProt Q15910); assay: Test on EZH2 inhibitory activity (TR-FRET); type: biochemical; conditions: EZH2 enzyme complex 25 ng/uL, histone H3 peptide 4 uM, SAM 2 uM, 300 min; read-out: IC50 of EZH2 inhibition
[1] = In vivo pharmacokinetic properties in mice; parameters: species or system mouse; conditions: male ICR mice; for F: intragastric 250 mg/kg vs intravenous 5 mg/kg; for CL / AUC(0-inf) / Cmax / Tmax / half-life: single intravenous 5 mg/kg and intragastric 250 mg/kg study; for AUC(0-inf) / Cmax / Tmax / half-life: mouse, plasma; for AUC(0-inf) / Cmax / Tmax: oral; for Cmax: read-out: Cmax; for Tmax: read-out: Tmax
Method: Male ICR mice were divided into different groups with 3 mice in each group, and single intravenous injection and single intragastric administration were conducted respectively. The compounds were formulated with 10% DMSO/90% (20% Captisol) to reach an appropriate concentration and then administered intravenously at 5 mg/kg. The compounds were formulated with 0.5% CMC-Na/0.1% Tween 80 (pH=3-4) to reach an appropriate concentration and then administered intragastrically at 250 mg/kg. Blood was taken at 5 min, 15 min, 30 min, 1 h, 2 h, 4 h, 6 h, 8 h and 24 h after administration, and then subjected to EDTA-K2 anticoagulation. The concentration of the compound in the plasma was quantitatively detected by an LC-MS/MS method.

Chain of EZH2 enzyme complex (Q15910 whole entry): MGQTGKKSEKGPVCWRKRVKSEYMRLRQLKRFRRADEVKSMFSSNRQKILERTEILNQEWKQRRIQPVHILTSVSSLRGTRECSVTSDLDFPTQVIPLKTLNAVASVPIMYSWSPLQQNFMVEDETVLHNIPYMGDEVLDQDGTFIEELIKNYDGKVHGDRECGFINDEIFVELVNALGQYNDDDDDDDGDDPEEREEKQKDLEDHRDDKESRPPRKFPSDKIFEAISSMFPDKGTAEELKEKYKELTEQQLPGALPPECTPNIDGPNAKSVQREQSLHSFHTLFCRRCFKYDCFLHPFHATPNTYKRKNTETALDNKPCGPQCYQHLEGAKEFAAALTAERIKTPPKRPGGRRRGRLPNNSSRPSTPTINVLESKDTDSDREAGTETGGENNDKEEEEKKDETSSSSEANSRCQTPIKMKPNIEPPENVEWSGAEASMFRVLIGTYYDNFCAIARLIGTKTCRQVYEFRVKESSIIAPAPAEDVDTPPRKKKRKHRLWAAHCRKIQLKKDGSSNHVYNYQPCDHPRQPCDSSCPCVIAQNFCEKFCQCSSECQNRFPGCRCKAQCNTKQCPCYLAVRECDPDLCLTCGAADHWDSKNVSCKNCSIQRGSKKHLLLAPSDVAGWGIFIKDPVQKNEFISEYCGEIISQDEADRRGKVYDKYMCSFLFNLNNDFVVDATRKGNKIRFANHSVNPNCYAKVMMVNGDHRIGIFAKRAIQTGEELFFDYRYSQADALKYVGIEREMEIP
Chain of EZH2 enzyme complex (O75530 whole entry partner): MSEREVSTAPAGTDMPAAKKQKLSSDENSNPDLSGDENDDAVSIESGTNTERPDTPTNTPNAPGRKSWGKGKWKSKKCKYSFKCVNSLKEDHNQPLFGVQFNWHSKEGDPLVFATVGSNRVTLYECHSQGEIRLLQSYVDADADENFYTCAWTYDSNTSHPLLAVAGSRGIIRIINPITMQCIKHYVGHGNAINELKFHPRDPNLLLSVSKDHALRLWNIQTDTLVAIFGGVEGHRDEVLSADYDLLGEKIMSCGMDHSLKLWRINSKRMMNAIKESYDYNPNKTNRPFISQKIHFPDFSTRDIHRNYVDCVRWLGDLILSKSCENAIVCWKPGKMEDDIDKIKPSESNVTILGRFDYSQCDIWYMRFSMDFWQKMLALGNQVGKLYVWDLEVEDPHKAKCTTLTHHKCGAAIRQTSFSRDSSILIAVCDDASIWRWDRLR
Chain of EZH2 enzyme complex (Q15022 whole entry partner): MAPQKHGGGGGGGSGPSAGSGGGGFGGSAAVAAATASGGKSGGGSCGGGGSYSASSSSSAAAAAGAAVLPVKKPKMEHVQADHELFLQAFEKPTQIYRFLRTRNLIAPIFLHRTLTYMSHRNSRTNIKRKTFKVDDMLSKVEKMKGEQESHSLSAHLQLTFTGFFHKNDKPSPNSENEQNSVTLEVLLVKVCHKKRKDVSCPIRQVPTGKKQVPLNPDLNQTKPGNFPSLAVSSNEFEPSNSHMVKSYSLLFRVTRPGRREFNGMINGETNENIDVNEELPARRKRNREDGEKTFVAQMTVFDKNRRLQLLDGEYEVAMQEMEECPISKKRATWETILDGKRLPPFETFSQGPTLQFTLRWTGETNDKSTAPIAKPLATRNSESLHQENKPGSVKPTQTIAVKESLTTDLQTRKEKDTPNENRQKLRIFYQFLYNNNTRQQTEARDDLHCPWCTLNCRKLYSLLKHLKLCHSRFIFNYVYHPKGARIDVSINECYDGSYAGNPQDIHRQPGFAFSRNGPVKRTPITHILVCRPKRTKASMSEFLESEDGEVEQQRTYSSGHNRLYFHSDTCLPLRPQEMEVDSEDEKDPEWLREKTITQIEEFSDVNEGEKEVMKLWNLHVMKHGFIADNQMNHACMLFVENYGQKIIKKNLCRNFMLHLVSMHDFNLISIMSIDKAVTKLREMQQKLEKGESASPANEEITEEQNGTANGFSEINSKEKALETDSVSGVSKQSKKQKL

SMILES | IC50 (EZH2 enzyme complex) | further results
Cc1cc(C)c(CNC(=O)c2cc(OC3CCC3)cc(OC3CCOCC3)c2C)c(=O)[nH]1 [Example 5, 5-cyclobutoxy-N-((4,6-dimethyl-2-oxo-1,2-dihydropyridin-3-yl)methyl)-2-methyl-3-((tetrahydro-2H-pyran-4-yl)oxy)benzamide] | 0.1 to 1 µM | –
CCN(c1cc(O[C@H]2C[C@H](CN3CCOCC3)C2)cc(C(=O)NCc2c(C)cc(C)[nH]c2=O)c1C)[C@H]1CC[C@H](N(C)CCOC)CC1 [Example 32, N-((4,6-dimethyl-2-oxo-1,2-dihydropyridin-3-yl)methyl)-3-(ethyl(trans-4-((2-methoxyethyl)(methyl)amino)cyclohexyl)amino)-2-methyl-5-(trans-3-(morpholinylmethyl)cyclobutoxy)benzamide] | 0.01 to 0.1 µM | –
CCN(c1cc(O[C@H]2C[C@@H](N3CCOCC3)C2)cc(C(=O)NCc2c(C)cc(C)[nH]c2=O)c1Cl)C1CCOCC1 [Example 40, 2-chloro-N-((4,6-dimethyl-2-oxo-1,2-dihydropyridin-3-yl)methyl)-3-(ethyl(tetrahydro-2H-pyran-4-yl)amino)-5-(cis-3-morpholinylcyclobutoxy)benzamide] | 0.01 to 0.1 µM | –
CCN(c1cc(O[C@H]2C[C@H](N3CCOCC3)C2)cc(C(=O)NCc2c(C)cc(C)[nH]c2=O)c1Cl)C1CCOCC1 [Example 41, 2-chloro-N-((4,6-dimethyl-2-oxo-1,2-dihydropyridin-3-yl)methyl)-3-(ethyl(tetrahydro-2H-pyran-4-yl)amino)-5-(trans-3-morpholinylcyclobutoxy)benzamide] | 0.01 to 0.1 µM | –
CCN(c1cc(O[C@H]2C[C@@H](N3CCNCC3)C2)cc(C(=O)NCc2c(C)cc(C)[nH]c2=O)c1Cl)C1CCOCC1 [Example 42, 2-chloro-N-((4,6-dimethyl-2-oxo-1,2-dihydropyridin-3-yl)methyl)-3-(ethyl(tetrahydro-2H-pyran-4-yl)amino)-5-(cis-3-(piperazin-1-yl)cyclobutoxy)benzamide] | 0.01 to 0.1 µM | –
CCN(c1cc(O[C@H]2C[C@H](N3CCNCC3)C2)cc(C(=O)NCc2c(C)cc(C)[nH]c2=O)c1Cl)C1CCOCC1 [Example 43, 2-chloro-N-((4,6-dimethyl-2-oxo-1,2-dihydropyridin-3-yl)methyl)-3-(ethyl(tetrahydro-2H-pyran-4-yl)amino)-5-(trans-3-(piperazin-1-yl)cyclobutoxy)benzamide] | 0.01 to 0.1 µM | –
CCN(c1cc(O[C@H]2C[C@H](N3C[C@@H](C)O[C@@H](C)C3)C2)cc(C(=O)NCc2c(C)cc(C)[nH]c2=O)c1C)C1CCOCC1 [Example 44, N-((4,6-dimethyl-2-oxo-1,2-dihydropyridin-3-yl)methyl)-5-(trans-3-(cis-2,6-dimethylmorpholinyl)cyclobutoxy)-3-(ethyl(tetrahydro-2H-pyran-4-yl)amino)-2-methylbenzamide] | 0.01 to 0.1 µM | –
CCN(c1cc(O[C@H]2C[C@H](N3C[C@@H](C)O[C@@H](C)C3)C2)cc(C(=O)NCc2c(C)cc(C)[nH]c2=O)c1C)C1CCN(CC(F)(F)F)CC1 [Example 50, N-((4,6-dimethyl-2-oxo-1,2-dihydropyridin-3-yl)methyl)-5-(trans-3-(cis-2,6-dimethylmorpholinyl)cyclobutoxy)-3-(ethyl (1-(2,2,2-trifluoroethyl)piperidin-4-yl)amino)-2-methylbenzamide] | 0.01 to 0.1 µM | –
CCN(c1cc(O[C@H]2C[C@H](N3CC4CC(C3)O4)C2)cc(C(=O)NCc2c(C)cc(C)[nH]c2=O)c1C)C1CCOCC1 [Example 54, 5-(trans-3-(6-oxa-3-azabicyclo[3.1.1]heptan-3-yl)cyclobutoxy)-N-((4,6-dimethyl-2-oxo-1,2-dihydropyridin-3-yl)methyl)-3-(ethyl(tetrahydro-2H-pyran-4-yl)amino)-2-methylbenzamide] | 0.01 to 0.1 µM | –
CCN(c1cc(O[C@H]2C[C@H](CN3CCOCC3)C2)cc(C(=O)NCc2c(C)cc(C)[nH]c2=O)c1F)C1CCOCC1 [Example 61, N-((4,6-dimethyl-2-oxo-1,2-dihydropyridin-3-yl)methyl)-3-(ethyl(tetrahydro-2H-pyran-4-yl)amino)-2-fluoro-5-(trans-3-(morpholinomethyl)cyclobutoxy)benzamide] | > 1 µM | –
CCN(c1cc(O[C@H]2C[C@H](N3CCOCC3)C2)cc(C(=O)NCc2c(C)cc(C)[nH]c2=O)c1C)C1CCOC1 (stereo partly drawn) [Example 64, N-((4,6-dimethyl-2-oxo-1,2-dihydropyridin-3-yl)methyl)-3-(ethyl(tetrahydrofuran-3-yl)amino)-2-methyl-5-(trans-3-morpholin-4-ylcyclobutoxy)benzamide] | 0.01 to 0.1 µM | –
CCN(c1cc(O[C@H]2C[C@H](N3CCCCC3)C2)cc(C(=O)NCc2c(C)cc(C)[nH]c2=O)c1Cl)C1CCOCC1 [Example 66, 2-chloro-N-((4,6-dimethyl-2-oxo-1,2-dihydropyridin-3-yl)methyl)-3-(ethyl(tetrahydro-2H-pyran-4-yl)amino)-5-(trans-3-(piperidin-1-yl)cyclobutoxy)benzamide] | – | F [1]: 38.3%; CL [1]: 53.5 ± 13.44 mL/min/lg; AUC(0-inf) [1]: 31.2 µg·h/mL; Cmax [1]: 16.7 ± 4.97 µg/mL; Tmax [1]: 0.42 ± 0.14 h; half-life [1]: 5.05 ± 0.75 h
CCN(c1cc(C2CC2CN2CCN(C)CC2)cc(C(=O)NCc2c(C)cc(C)[nH]c2=O)c1C)[C@H]1CC[C@H](N(C)CCOC)CC1 (stereo partly drawn) [Example 81, N-((4,6-dimethyl-2-oxo-1,2-dihydropyridin-3-yl)methyl)-3-(ethyl(trans-4-((2-methoxyethyl)(methyl)amino)cyclohexyl)amino)-2-methyl-5-(2-((4-methylpiperazin-1-yl)methyl)cyclopropyl)benzamide] | 0.01 to 0.1 µM | –
CCN(c1cc(C2CC2CN2CCOCC2)cc(C(=O)NCc2c(C)cc(C)[nH]c2=O)c1Cl)C1CCOCC1 (stereo not drawn) [Example 84, 2-chloro-N-((4,6-dimethyl-2-oxo-1,2-dihydropyridin-3-yl)methyl)-3-(ethyl(tetrahydro-2H-pyran-4-yl)amino)-5-(2-(morpholinylmethyl)cyclopropyl)benzamide] | 0.1 to 1 µM | –
CCN(c1cc(O[C@H]2C[C@H](N3CCOCC3)C2)cc(C(=O)NCc2c(C)cc(C)[nH]c2=O)c1C)C1CC2CCC(C1)O2 (stereo partly drawn) [Example 86] | – | F [1]: 29.5%; CL [1]: 65.5 ± 1.60 mL/min/lg; AUC(0-inf) [1]: 18.8 ± 4.56 µg·h/mL; Cmax [1]: 21 ± 8.04 µg/mL; Tmax [1]: 0.25 h; half-life [1]: 4.19 ± 3.07 h
CCN(c1cc(O[C@H]2C[C@H](N3CCC(C)CC3)C2)cc(C(=O)NCc2c(OC)cc(C)[nH]c2=O)c1Cl)C1CCOCC1 [Example 89] | 0.01 to 0.1 µM | –
CCN(c1cc(O[C@H]2C[C@H](N3CCC(C)CC3)C2)cc(C(=O)NCc2c(C)cc(C(F)(F)F)[nH]c2=O)c1Cl)C1CCOCC1 [Example 90] | > 1 µM | –

From US12390472B2 (SUZHOU SINOVENT PHARMACEUTICALS CO., LTD., priority 2018, dated 2025)
